Results: patent publication US20230243825A1, “ADAPTIVE NANOPARTICLE PLATFORMS FOR HIGH THROUGHPUT EXPANSION AND DETECTION OF ANTIGEN-SPECIFIC T CELLS” (The Johns Hopkins University, priority 2020, published 2023)

What was measured:
[1] = system: SIY and VDW-specific CD8+ T cells; test: In vivo peptide vaccination with poly I:C, dimer staining; parameters: species or system mouse; settings: Day 0 and Day 7, harvest Day 15
Description: On Day 15, mouse spleens and lymph nodes were harvested for dimer and particle staining, following similar protocols described above.

[2] = system: B16-OVA tumor cells; test: IFN-γ pre-incubation of tumor cells; type: cell-based; settings: overnight pre-incubation
Method: Whether this same approach can be expanded to other tumor models was then examined by applying it to B16-OVA. Initial results were inconclusive, so an attempt to increase the amount of recoverable peptide was made by pre-incubating tumor cells overnight with IFN-γ to upregulate MHC I on their surface. […] The calculated yield was approximately […] of peptide per 1×10^4 tumor cells, still roughly 0.00002% (w/w) of the eluted 100 micrograms of peptide.

| Substance | peptide-specific CD8+ T cells, dimer staining pre- vs post-vaccination [1] | MHC I expression on tumor cells [2] |
| --- | --- | --- |
| SIYRYYGL | significant increases | – |
| VDWENVSPEL | significant increases | – |
| IFNγ | – | drastically increased |
